Data taken from US20070149509A1, “Use of vitamin e” (priority 2003, published 2007).

System: melatonin receptor type 1 gene (MT1)
Experiment: Impact of vitamin E on melatonin receptor expression in rat brain (high-density oligonucleotide microarrays)
Type: in vivo
Conditions: male rats, vitamin E containing diet vs vitamin E deficient diet, monitored over 9 months at 4 time-points, brain/hippocampus
Procedure: The impact of vitamin E on melatonin receptor expression in rat hippocampus was determined as follows: Two groups of male rats were randomly assigned to either a VE sufficient diet or to a diet deficient in VE for 270 days. High-density oligonucleotide microarrays comprising over 7,000 genes were used to assess the transcriptional response of the brain. Differential gene expression was monitored over a period of 9 months, at 4 different time-points.

In the case of vitamin E, the “melatonin receptor type 1 gene (MT1) expression in the brain” value was “strongly and consistently up-regulated”.
